Reference: patent US7041647B2, “Synthetic peptide having an ionophoric and antimicrobial activity” (Corporacion Para Investigaciones Biologicas, priority 2003, dated 2006)
No end group written: not given here.

Tests used:
[1] = tested on: inner membrane of rat liver mitochondria; assay: Mitochondrial swelling in isotonic media (ionophoric activity); type: biochemical; details: pH 7.4
Protocol: FIG. 1 Ionophoric activity of P1 in the inner membrane of rat liver mitochondria. The mitochondria at a concentration of 0.5 mg/ml of protein were incubated in the media 125 mM KNO3, 5 mM HEPES-tris, pH 7.4 (Panel A) and 125 mM NH4NO3, 5 mM HEPES-tris, pH 7.4 (Panel B), both media were supplemented with 2.5 μM rotenone and 1 μM oligomycin (RO), added just after the mitochondria. The peptide P1 was added at the following final concentrations: 1.8 μM of P1 (curves a); 0.36 μM of P1 (curves b); 0.18 μM of P1 (curves c); 0.18 μM of P1 plus 2.5 mM of succinate (curves d); 0.12 μM of valinomycin (curve e), and 2 μM of FCCP, (curve f). In Panel C, the permeability of the inner mitochondrial membrane induced by the peptide P1 was evaluated for the following cations: H^+, K^+, Na^+, and Tris^+. […]
The mitochondria were isolated and prepared as described above. […] The mitochondrial swelling was spectrophotometrically monitored at 540 nm (Turner Spectrophotometer, model SP-850, USA, modified with a magnetic mini-stirrer). The curves were recorded in a graphical recorder (Linseis model L250E, USA), scanned and then processed in the program Adobe Photoshop V5.0. […]

human red blood cells = assay: Hemolytic activity in human erythrocytes; type: cell-based; details: for Percentage of hemolysis, X ± SD: hematocryte 0.5%, 1 h room temperature
Protocol: FIG. 5 Effect of P1 in human red blood cells; Human red blood cells were resuspended to a hematocryte of 0.5% in the isotonic solutions indicated in materials and methods. The peptide P1 was added at different concentrations to the cellular suspensions and incubated for 1 hour at room temperature. The supernatants were obtained by centrifugation of the suspensions at 10000 rpm for 5 min at 4° C. (International Equipment Company IEC, Centra MP4R; rotor 851), the absorbance of the supernatants was registered at 415 nm with a spectrophotometer (BIORAD). The results were expressed as percentage of hemolysis relative to the maximum hemolysis (erythrocytes hemolysed in 0.01% Tween-20).
FIG. 6 The hemolysis caused by P1 in the erythrocytes decreases with an increase in the hematocryte; human red blood cells were resuspended at different hematocrytes: 0.5%, 2.5% and 10% in 150 mM NaCl, 5 mM KCl, 5 mM Glucose, 10 mM HEPES-tris, pH 7.4. Peptide P1 was added at different concentrations in the cellular suspension and incubated during 1 h at room temperature. The supernatants were obtained by centrifugation at 10000 rpm for 5 min at 4° C. and the absorbance at 415 nm was determined with a BIORAD spectrophotometer. The results were expressed as percentage of hemolysis relative to the maximum hemolysis (erythrocytes lysed in 0.01% Tween-20).
The hemolytic activity of peptide P1 was determined in heparinized human red blood cells from a volunteer (final concentration of heparin 20.4 U/ml), and washed three times in 150 mM NaCl, 9 mM Na2PO4, pH 7.3, at room temperature. The red blood cells were resuspended to an hematocryte of 0.5% in isotonic solutions 150 mM NaCl, 5 mM KCl, 5 mM Glucose, 10 mM HEPES-tris, pH 7.4; 155 mM KCl, 5 mM Glucose, 10 mM HEPES-tris, pH 7.4; 300 mM saccharose, 5 mM KCl, 5 mM Glucose, 10 mM HEPES-tris, pH 7.4; 150 mM polyethyleneglycol-1500 (PEG-1500), 5 mM KCl, 5 mM Glucose, 10 mM HEPES-tris, pH 7.4. […] The supernatants were recovered by centrifugation of the cellular suspension at 10000 rpm for 5 min at 4° C. and the absorbance at 415 nm was determined in a BIORAD spectrophotometer. The averages and standard deviations were calculated and the data were introduced to the program SigmaPlot V4.0 in order to generate the corresponding graphs (FIGS. 3 and 4).

[2] = Solubility in aqueous solutions; type: physicochemical
Excerpt: The peptides were synthesized by the method of solid phase synthesis (Merrifield B. 1963. Solid Phase Peptide Synthesis, Journal American Chemical Society. 85: 2149–2154; and Houghten R. A. 1985. General methods for the rapid solid phase synthesis of large numbers of peptides: specificity of antigen antibody interaction at the level of individual amino acids. Proc. Natl. Acad. Sci. USA. 82: 5131–5135.) under the methods of good manufacture practices (GMP). A resin p-methyl benzidrylamine (MBHA) (0.7 meq/g), t-boc amino acids (Bachem, USA) and the process of high-low cleavage were used in the synthesis. (Andreu D, Merrifield RB, Steiner H, Boman HG. 1983. Solid-phase synthesis of Cecropin A and Related Peptides. Proc. Natl. Acad. Sci USA 80: 6475–6479.). Once synthesized, the peptides were extracted with 10% acetic acid in water. The peptides were purified by high pressure liquid chromatography (HPLC), in a reverse phase column, and they were analyzed by means of mass spectrometry (Maldi-Tof). The peptides were lyophilized and kept in powder at 4° C. until its use.

[3] = tested on: Escherichia coli (ATCC 25922); details: ATCC 25922, 2 h, 7.1 μM
[4] = tested on: Staphylococcus aureus (ATCC 25923); details: ATCC 25923, 2 h, 7.1 μM
[5] = tested on: Streptococcus pneumoniae (ATCC 49619); details: ATCC 49619, 2 h, 7.1 μM
[6] = tested on: Bacteroides fragilis (ATCC 25285); details: ATCC 25285, 2 h, 7.1 μM
[7] = tested on: Clostridium perfringens (ATCC 13124); details: ATCC 13124, 2 h, 7.1 μM

## CC(C)[C@@H]1NC(=O)[C@H](C)OC(=O)[C@@H](C(C)C)NC(=O)[C@@H](C(C)C)OC(=O)[C@H](C(C)C)NC(=O)[C@H](C)OC(=O)[C@@H](C(C)C)NC(=O)[C@@H](C(C)C)OC(=O)[C@H](C(C)C)NC(=O)[C@H](C)OC(=O)[C@@H](C(C)C)NC(=O)[C@@H](C(C)C)OC1=O [valinomycin]
[1]; 0.12 μM valinomycin, medium 125 mM KNO3, 5 mM HEPES-tris, FIG. 1 Panel A curve e
  Rate of mitochondrial swelling (slope): 1.4

## VAPIAKYLATALAKWALKQGFAKLKS-NH2 (C-terminus assumed) [P1]
Human red blood cells; 0.36 μM P1, isotonic medium KCl 150 mM
  Percentage of hemolysis, X ± SD: 17.25 ± 1.05%
Human red blood cells; 0.36 μM P1, isotonic medium NaCl 150 mM
  Percentage of hemolysis, X ± SD: 3.75 ± 0.05%
Human red blood cells; 0.36 μM P1, isotonic medium PEG-1500 150 mM
  Percentage of hemolysis, X ± SD: 0.25 ± 0.07%
Human red blood cells; 0.36 μM P1, isotonic medium Saccharose 150 mM
  Percentage of hemolysis, X ± SD: 57.5 ± 0.73%
Human red blood cells; 0.36 μM peptide, order disappears at 3.6 μM
  Permeability order of hemolytic activity by isotonic medium: saccharose>KCl>NaCl
Human red blood cells; 3.6 μM P1, isotonic medium KCl 150 mM
  Percentage of hemolysis, X ± SD: 64.25 ± 1.23%
Human red blood cells; 3.6 μM P1, isotonic medium NaCl 150 mM
  Percentage of hemolysis, X ± SD: 59.25 ± 1.15%
Human red blood cells; 3.6 μM P1, isotonic medium PEG-1500 150 mM
  Percentage of hemolysis, X ± SD: 2.75 ± 0.3%
Human red blood cells; 3.6 μM P1, isotonic medium Saccharose 150 mM
  Percentage of hemolysis, X ± SD: 75.5 ± 10.38%
Human red blood cells; hematocryte increased at 10%, NaCl medium
  Hemolytic activity with increased hematocryte: decreases dramatically
Human red blood cells; hematocryte is high
  Hemolytic activity in a physiological solution: insignificant
Human red blood cells; isotonic medium PEG-1500
  Hemolytic activity (in words): does not show hemolytic activity
[2]
  Solubility in aqueous solutions: highly soluble
[3]
  % of growth inhibition: 100%
[4]
  % of growth inhibition: 100%
[5]
  % of growth inhibition: 100%
[6]
  % of growth inhibition: 100%
[7]
  % of growth inhibition: 100%

## N#CC(C#N)=NNc1ccc(OC(F)(F)F)cc1 [FCCP, carbonyl-cyanide-p-trifluoromethoxy phenylhydrazone]
[1]; 2 μM FCCP, medium 125 mM NH4NO3, 5 mM HEPES-tris, FIG. 1 Panel B curve f
  Speed of mitochondrial swelling (slope): 3.5
